Measurements reported in ChEMBL document CHEMBL1201862, “PubChem BioAssay data set” (2004).
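Each compound was tested at five concentrations against cells in 96-well plates for 48 hours. Abbreviation: GI50, concentration required for 50% inhibition of growth.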 Activity calls are given as the source filed them. Rule as the data show it: active = GI50 up to about 1.1 µM and inactive = higher.

Key:
Assay in all cases: NCI anticancer screen, dose series, 48 h
A498 = tested on: A498
NCI-H522 = tested on: NCI-H522
SNB-19 = tested on: SNB-19
RXF 393 = tested on: RXF 393
A549 = tested on: A549
SK-MEL-2 = tested on: SK-MEL-2
UACC-257 = tested on: UACC-257
SN12C = tested on: SN12C
UO-31 = tested on: UO-31
HCC 2998 = tested on: HCC 2998
XF498 = tested on: XF498
HOP-92 = tested on: HOP-92
Malme-3M = tested on: Malme-3M
K562 = tested on: K562
OVCAR-5 = tested on: OVCAR-5
KM-20L2 = tested on: KM-20L2
SW-620 = tested on: SW-620
HT-29 = tested on: HT-29
HOP-18 = tested on: HOP-18
NCI-H23 = tested on: NCI-H23
DLD-1 = tested on: DLD-1
HCT-15 = tested on: HCT-15
DMS-114 = tested on: DMS-114
IGROV-1 = tested on: IGROV-1
SK-MEL-28 = tested on: SK-MEL-28
M19-MEL = tested on: M19-MEL
SNB-78 = tested on: SNB-78
EKVX = tested on: EKVX
KM12 = tested on: KM12
SNB-75 = tested on: SNB-75
HCT-116 = tested on: HCT-116
786-0 = tested on: 786-0
SF-295 = tested on: SF-295
LOX IMVI = tested on: LOX IMVI
MOLT-4 = tested on: MOLT-4
U-251 = tested on: U-251
COLO 205 = tested on: COLO 205
HL-60 = tested on: HL-60
NCI-H460 = tested on: NCI-H460
OVCAR-3 = tested on: OVCAR-3
TK-10 = tested on: TK-10
SF-268 = tested on: SF-268
OVCAR-8 = tested on: OVCAR-8
OVCAR-4 = tested on: OVCAR-4
SF-539 = tested on: SF-539
ACHN = tested on: ACHN
RPMI-8226 = tested on: RPMI-8226
NCI-H226 = tested on: NCI-H226
SR = tested on: SR
LXFL 529 = tested on: LXFL 529
HOP-62 = tested on: HOP-62
CAKI-1 = tested on: CAKI-1
M14 = tested on: M14
SK-OV-3 = tested on: SK-OV-3
DMS-273 = tested on: DMS-273
SK-MEL-5 = tested on: SK-MEL-5
CCRF-CEM = tested on: CCRF-CEM
UACC-62 = tested on: UACC-62
MCF7 = tested on: MCF7
NCI/ADR-RES = tested on: NCI/ADR-RES

Compound: O=c1c2cc(Br)ccc2n(C2OC(CO)C(O)C(O)C2O)c(=S)n1-c1ccccc1 (stereo unspecified)
- GI50 (A498): > 100 µM (inactive)
- GI50 (NCI-H522): > 100 µM (inactive)
- GI50 (SNB-19): > 100 µM (inactive)
- GI50 (RXF 393): > 100 µM (inactive)
- GI50 (A549): > 100 µM (inactive)
- GI50 (SK-MEL-2): > 100 µM (inactive)
- GI50 (UACC-257): > 100 µM (inactive)
- GI50 (SN12C): > 100 µM (inactive)
- GI50 (UO-31): > 100 µM (inactive)
- GI50 (HCC 2998): > 100 µM (inactive)
- GI50 (XF498): 50.5 µM (inactive)
- GI50 (HOP-92): 98.2 µM (inactive)
- GI50 (Malme-3M): > 100 µM (inactive)
- GI50 (K562): > 100 µM (inactive)
- GI50 (OVCAR-5): > 100 µM (inactive)
- GI50 (KM-20L2): > 100 µM (inactive)
- GI50 (SW-620): > 100 µM (inactive)
- GI50 (HT-29): > 100 µM (inactive)
- GI50 (HOP-18): > 100 µM (inactive)
- GI50 (NCI-H23): > 100 µM (inactive)
- GI50 (DLD-1): > 100 µM (inactive)
- GI50 (HCT-15): > 100 µM
- GI50 (DMS-114): > 100 µM (inactive)
- GI50 (IGROV-1): > 100 µM (inactive)
- GI50 (SK-MEL-28): > 100 µM (inactive)
- GI50 (M19-MEL): > 100 µM (inactive)
- GI50 (SNB-78): > 100 µM (inactive)
- GI50 (EKVX): > 100 µM (inactive)
- GI50 (KM12): > 100 µM (inactive)
- GI50 (SNB-75): 68.1 µM (inactive)
- GI50 (HCT-116): > 100 µM (inactive)
- GI50 (786-0): 82.4 µM (inactive)
- GI50 (SF-295): > 100 µM (inactive)
- GI50 (LOX IMVI): > 100 µM (inactive)
- GI50 (MOLT-4): 86.7 µM (inactive)
- GI50 (U-251): > 100 µM (inactive)
- GI50 (COLO 205): > 100 µM (inactive)
- GI50 (HL-60): > 100 µM (inactive)
- GI50 (NCI-H460): > 100 µM (inactive)
- GI50 (OVCAR-3): > 100 µM (inactive)
- GI50 (TK-10): > 100 µM (inactive)
- GI50 (SF-268): > 100 µM (inactive)
- GI50 (OVCAR-8): > 100 µM (inactive)
- GI50 (OVCAR-4): > 100 µM (inactive)
- GI50 (SF-539): > 100 µM (inactive)
- GI50 (ACHN): > 100 µM (inactive)
- GI50 (RPMI-8226): > 100 µM (inactive)
- GI50 (NCI-H226): > 100 µM (inactive)
- GI50 (SR): 73.3 µM (inactive)
- GI50 (LXFL 529): 74.3 µM (inactive)
- GI50 (HOP-62): > 100 µM (inactive)

Compound: CCOC(=O)/C(=C\c1ccccc1)C(=O)O
- GI50 (A498): > 100 µM (inactive)
- GI50 (NCI-H522): > 100 µM (inactive)
- GI50 (SNB-19): > 100 µM (inactive)
- GI50 (A549): > 100 µM (inactive)
- GI50 (SK-MEL-2): > 100 µM (inactive)
- GI50 (UACC-257): > 100 µM (inactive)
- GI50 (SN12C): > 100 µM (inactive)
- GI50 (UO-31): > 100 µM (inactive)
- GI50 (HCC 2998): > 100 µM (inactive)
- GI50 (XF498): > 100 µM (inactive)
- GI50 (CAKI-1): > 100 µM (inactive)
- GI50 (HOP-92): > 100 µM (inactive)
- GI50 (Malme-3M): > 100 µM (inactive)
- GI50 (M14): > 100 µM (inactive)
- GI50 (K562): > 100 µM (inactive)
- GI50 (OVCAR-5): > 100 µM (inactive)
- GI50 (KM-20L2): > 100 µM (inactive)
- GI50 (SW-620): > 100 µM (inactive)
- GI50 (HT-29): > 100 µM (inactive)
- GI50 (NCI-H23): > 100 µM (inactive)
- GI50 (HCT-15): > 100 µM
- GI50 (DMS-114): > 100 µM (inactive)
- GI50 (SK-OV-3): > 100 µM (inactive)
- GI50 (IGROV-1): > 100 µM (inactive)
- GI50 (SK-MEL-28): > 100 µM (inactive)
- GI50 (M19-MEL): > 100 µM (inactive)
- GI50 (DMS-273): > 100 µM (inactive)
- GI50 (SNB-78): > 100 µM (inactive)
- GI50 (EKVX): > 100 µM (inactive)
- GI50 (KM12): > 100 µM (inactive)
- GI50 (HCT-116): > 100 µM (inactive)
- GI50 (786-0): > 100 µM (inactive)
- GI50 (SF-295): > 100 µM (inactive)
- GI50 (LOX IMVI): > 100 µM (inactive)
- GI50 (MOLT-4): > 100 µM (inactive)
- GI50 (U-251): > 100 µM (inactive)
- GI50 (SK-MEL-5): > 100 µM (inactive)
- GI50 (CCRF-CEM): > 100 µM (inactive)
- GI50 (COLO 205): > 100 µM (inactive)
- GI50 (HL-60): > 100 µM (inactive)
- GI50 (NCI-H460): > 100 µM (inactive)
- GI50 (OVCAR-3): > 100 µM (inactive)
- GI50 (SF-268): > 100 µM (inactive)
- GI50 (OVCAR-8): > 100 µM (inactive)
- GI50 (OVCAR-4): > 100 µM (inactive)
- GI50 (SF-539): > 100 µM (inactive)
- GI50 (ACHN): > 100 µM (inactive)
- GI50 (RPMI-8226): > 100 µM (inactive)
- GI50 (NCI-H226): > 100 µM (inactive)
- GI50 (SR): > 100 µM (inactive)
- GI50 (UACC-62): > 100 µM (inactive)
- GI50 (HOP-62): > 100 µM (inactive)

Compound: CCN(CC)CCNC(=O)C1COc2ccc(-c3cc(=O)c4ccccc4o3)cc2O1 (stereo unspecified)
- GI50 (A498): 16 µM (inactive)
- GI50 (NCI-H522): 18.2 µM (inactive)
- GI50 (SNB-19): 20.2 µM (inactive)
- GI50 (RXF 393): 20 µM (inactive)
- GI50 (A549): 23.6 µM (inactive)
- GI50 (SK-MEL-2): 19.8 µM (inactive)
- GI50 (UACC-257): 17.6 µM (inactive)
- GI50 (SN12C): 19.1 µM (inactive)
- GI50 (UO-31): 16 µM (inactive)
- GI50 (HCC 2998): 19.2 µM (inactive)
- GI50 (XF498): 22.6 µM (inactive)
- GI50 (CAKI-1): 20.5 µM (inactive)
- GI50 (HOP-92): 19.1 µM (inactive)
- GI50 (Malme-3M): 16 µM (inactive)
- GI50 (K562): 16 µM (inactive)
- GI50 (OVCAR-5): 22.3 µM (inactive)
- GI50 (KM-20L2): 17.5 µM (inactive)
- GI50 (SW-620): 18.5 µM (inactive)
- GI50 (HT-29): 14.9 µM (inactive)
- GI50 (HOP-18): 21 µM (inactive)
- GI50 (NCI-H23): 22 µM (inactive)
- GI50 (DLD-1): 22.9 µM (inactive)
- GI50 (HCT-15): 15.5 µM
- GI50 (SK-OV-3): 23 µM (inactive)
- GI50 (IGROV-1): 28.9 µM (inactive)
- GI50 (SK-MEL-28): 17.4 µM (inactive)
- GI50 (M19-MEL): 18.3 µM (inactive)
- GI50 (DMS-273): 19.4 µM (inactive)
- GI50 (SNB-78): 10.1 µM (inactive)
- GI50 (EKVX): 26.7 µM (inactive)
- GI50 (KM12): 18.2 µM (inactive)
- GI50 (SNB-75): 17.2 µM (inactive)
- GI50 (HCT-116): 17.8 µM (inactive)
- GI50 (SF-295): 18.5 µM (inactive)
- GI50 (LOX IMVI): 17.2 µM (inactive)
- GI50 (MOLT-4): 20.6 µM (inactive)
- GI50 (U-251): > 45.2 µM (inactive)
- GI50 (SK-MEL-5): 20.9 µM (inactive)
- GI50 (CCRF-CEM): 19.1 µM (inactive)
- GI50 (COLO 205): 17.9 µM (inactive)
- GI50 (HL-60): 13.2 µM (inactive)
- GI50 (MCF7): 19.4 µM (inactive)
- GI50 (NCI-H460): 16.8 µM (inactive)
- GI50 (OVCAR-3): 21.2 µM (inactive)
- GI50 (NCI/ADR-RES): 19.2 µM (inactive)
- GI50 (SF-268): 19.5 µM (inactive)
- GI50 (OVCAR-8): 16.7 µM (inactive)
- GI50 (OVCAR-4): 18.5 µM (inactive)
- GI50 (SF-539): 15.8 µM (inactive)
- GI50 (RPMI-8226): 22.5 µM (inactive)
- GI50 (NCI-H226): 16.6 µM (inactive)
- GI50 (UACC-62): 17.6 µM (inactive)
- GI50 (HOP-62): 21.4 µM (inactive)
